Data set [1] can be described thus: Urine pharmacokinetics, Phase I Study. Format: in vivo, human (patients). To be noted: Cycle 1, 0–48 hours after the DFP-11207 dose of 330 mg/m^2/day.
Data set [2] can be described thus: Plasma pharmacokinetics, Food Effect Study (fed vs fasted). To be noted: for detectability in plasma during fed and fasted dosing: 6 patients.
A short description of data set [3]: Plasma pharmacokinetics, Phase I Study (LC-MS/MS of DFP-11207 metabolites). The note with it: for AUC(0-t) / Cmax / Tmax / concentration at 2 day (Cycle 1): human, po.
The conditions of data set [4]: ref 18 (capecitabine), 19 (UFT), 20 (S-1); cited from earlier work.

Entries after “also recorded” stand apart in the source; their conditions may differ.

Regarding `O=c1[nH]cc(F)c(=O)[nH]1` [5-FU, 5-fluorouracil, reference compound], in data set [1], the urinary excretion is recorded as 0.12%. Further, the “difference in plasma levels (Cmax or AUClast) between fasted and fed conditions” value in data set [2] (in vivo) is given as “no influence; also recorded: no clear differences”. The “5-FU Cmax at steady state” value in data set [3] (DFP-11207 330 mg/m^2/day orally every 12 hours) was less than 25 ng/mL. Also, in data set [3] (plasma, 330 mg/m2), the AUC(0-t) was 220 ng·h/mL, the highest concentration (Cmax) turned out to be 9.65 ng/mL and the time to peak (Tmax) came out at 24 h. The concentration at 2 day (Cycle 1) in data set [3] (plasma, 330 mg/m^2/day) was 4.01 to 25.5 ng/mL. Also, in data set [3] (plasma, 440 mg/m2), the Cmax was found to be 8.75 ng/mL and the time of peak concentration (Tmax) came to 12 h. In data set [3] (plasma, 440 mg/m^2/day), the concentration at 2 day (Cycle 1) was 3.39 to 13 ng/mL. Further, the “blood concentrations maintained throughout the dose cycle” value in data set [3] (oral DFP-11207 at 330 and 440 mg/m^2/day) is listed as “approximately 20 ng/mL”. Moreover, in data set [3] (plasma, Day 1, oral DFP-11207 440 mg/m^2), the “AUClast, Mean (SD)” value is 3; 311 (214) ng·h/mL.

For `Oc1cc(O)c(Cl)cn1` [CDHP, 5-chloro-2,4-dihydroxypyridine], the urinary excretion in data set [1] is 1.98%. Also, in data set [2] (DFP-11207 300 mg twice daily), the “detectability in plasma during fed and fasted dosing” value is “detectable in plasma at all time points”. In data set [3] (plasma, 330 mg/m2), the AUC(0-t) came out at 2410 ng·h/mL, the Cmax was found to be 90.4 ng/mL and the time of peak concentration (Tmax) worked out at 24 h. Further, in data set [3] (plasma, 440 mg/m2), the AUC(0-t) is 2810 ng·h/mL, the maximum concentration (Cmax) stood at 93.6 ng/mL and the Tmax was 26 h.

In data set [1], `O=C(O)c1cc(O)nc(O)c1` [CTA, citrazinic acid] came in with a urinary excretion of 0.07%. Also, in data set [2] (DFP-11207 300 mg twice daily, patients serving as their own controls), the “difference in plasma levels (Cmax or AUClast) between fasted and fed conditions” value is given as “no clear differences”. Besides, in data set [3] (plasma, 330 mg/m2), the AUC(0-t) was 254 ng·h/mL, the Cmax is 9.81 ng/mL and the Tmax is 8 h. For the same compound, in data set [3] (plasma, 440 mg/m2), the AUC(0-t) came out at 388 ng·h/mL, the Cmax turned out to be 9.72 ng/mL and the time of peak concentration (Tmax) came out at 4 h.

As to `CCOCn1cc(F)c(=O)[nH]c1=O` [EM-FU, 1-ethoxymethyl-5-fluorouracil], the urinary excretion in data set [1] is recorded as 0.71%. Moreover, the “detectability in plasma during fed and fasted dosing” value in data set [2] (DFP-11207 300 mg twice daily) was “detectable in plasma at all time points”. The AUC(0-t) in data set [3] (plasma, 330 mg/m2) was 39900 ng·h/mL; in data set [3] (plasma, 440 mg/m2) it was 49400 ng·h/mL. The Cmax was 1310 ng/mL in data set [3] (plasma, 330 mg/m2) and 1400 ng/mL in data set [3] (plasma, 440 mg/m2). Also, the Tmax in data set [3] (plasma, 330 mg/m2) was 48 h; in data set [3] (plasma, 440 mg/m2) it was 24 h. The concentration at 2 day (Cycle 1) fell in the range of 559 to 1380 ng/mL in data set [3] (plasma, 330 mg/m^2/day) and 948 to 1770 ng/mL in data set [3] (plasma, 440 mg/m^2/day).

On to `CCCCCOC(=O)Nc1nc(=O)n([C@@H]2O[C@H](C)[C@@H](O)[C@H]2O)cc1F` [capecitabine], for which, in data set [4], the primary dose-limiting toxicity result was “hand-foot syndrome”.

The values are drawn from paper PMC7575509, “Phase I study of DFP-11207, a novel oral fluoropyrimidine with reasonable AUC and low Cmax and improved tolerability, in patients with solid tumors” (Investigational New Drugs, 2020).
